# According to patent US7838515B2, “Formulations of quaternary ammonium neuromuscular blocking agents” (Lyotropic Therapeutics, Inc., priority 2005, dated 2010):
# Like-named read-outs stand apart in the source and are kept apart here.
# Tests used:
# [1] = cited from earlier work
# [2] = HPLC stability of vecuronium bromide solutions with anionic additives (Example 1); format: physicochemical
# Protocol: HPLC System was a Shimadzu VP Series that consists of the following components: SPD-M10A—Diode Array Detector; SIL-10AD—Autosampler; LC-10AT—Pump; SCL-10A—Controller; and Shimadzu EZ Start Version 7.2 SP 1 Revision B—Software.
# In this Example a number of anionic compounds, with various pKa's and carbon numbers, were compared for their ability to stabilize vecuronium in solution.
# The following chart gives the compositions that were prepared and examined by HPLC for stability over time. Each sample contained approximately 1 mg/mL vecuronium bromide. […] All numerical entries in the chart are actual recorded weights in grams: […]
# [3] = Shelf-life of vecuronium bromide control solutions (HPLC, 15% potency lost); format: physicochemical; settings: for shelf-life of solution: 1 mg/ml in water, point at which 15% of potency is lost
# Source text: In the Examples below, where HPLC assay results for vecuronium are reported, the following gives the parameters of the HPLC measurement. HPLC System was a Shimadzu VP Series that consists of the following components: SPD-M10A—Diode Array Detector; SIL-10AD—Autosampler; LC-10AT—Pump; SCL-10A—Controller; and Shimadzu EZ Start Version 7.2 SP 1 Revision B—Software. Chromatographic Parameters: Mobile Phase—60% Acetonitrile, 25% Methanol, 15% 0.1M TMAH (pH=6.5); Column—25 cm×4.6 mm Phenomenex Luna C18 5 μm; Wavelength—210 nm; Injection Volume—5 μL; Flow Rate—1.0 mL/min; Standard Preparation—1 mg/mL in 0.001N HCl/Methanol; and Sample Preparation—1 mg/mL—Undiluted.
# In the case of vecuronium at pH 6 and 25° C., the shelf-life of just under 1 week was recorded for both a maleate-TRIS buffer and an HCl-acidified vecuronium solution.
# [4] = Cubic phase-water partitioning of vecuronium (HPLC); format: physicochemical
# Source text: It is this hydrophobic milieu that is central to the invention, in limiting the contact between water and the labile group(s) of the drug.
# twitch response = settings: 0.08 to 0.1 mg/Kg, balanced anesthesia; cited from earlier work
# [5] = with a charged surfactant (sodium glycocholate)
# [6] = 25° C. and 40° C. data of Example 1
smiles,measurement,setting,value
O=C1NS(=O)(=O)c2ccccc21 [saccharin],pKa,[1],2.0
same,effect of the additive on vecuronium solution stability (in words),[2],most stable solutions
"CC(=O)O[C@H]1C[C@@H]2CC[C@@H]3[C@H](CC[C@@]4(C)[C@H]3C[C@H]([N+]3(C)CCCCC3)[C@@H]4OC(C)=O)[C@@]2(C)C[C@@H]1N1CCCCC1 [Vecuronium, vecuronium bromide]",shelf-life of solution,"[3]; pH 6.0, 4° C.",5 weeks
same,shelf-life of solution,"[3]; pH 6.0, 25° C.",1 week
same,time until potency is reduced to 85% of initial,[3]; control solution at same pH (5.2) and temperature (25° C.),about 2 weeks
same,shelf-life,"[3]; pH 6, 25° C., both maleate-TRIS buffer and HCl-acidified solution",under 1 week
same,KQW (cubic-water partition coefficient),[4]; [5],"10,000"
same,concentration in the aqueous phase,[4]; [5],1 µg/mL
same,concentration in the cubic phase,[4]; [5],10600 µg/mL
same,log KQW,[4]; [5],+4
same,KQW (cubic-water partition coefficient),[4]; without a charged surfactant,"1,667"
same,concentration in the aqueous phase,[4]; without a charged surfactant,6 µg/mL
same,concentration in the cubic phase,[4]; without a charged surfactant,10000 µg/mL
same,log KQW,[4]; without a charged surfactant,+3.2
same,time to first depression of twitch response,twitch response,approximately 1 minute
C[C@H](CCC(=O)O)[C@H]1CC[C@H]2[C@@H]3CC[C@@H]4C[C@H](O)CC[C@]4(C)[C@H]3C[C@H](O)[C@]12C [deoxycholic acid],pKa,[1],about 5.7
O=C(O)/C=C\C(=O)O [maleic],pKa,[1],3.9
"C[C@H](CCC(=O)NCC(=O)O)[C@H]1CC[C@H]2[C@@H]3[C@H](O)C[C@@H]4C[C@H](O)CC[C@]4(C)[C@H]3C[C@H](O)[C@]12C [glycocholic, glycocholic acid]",pKa,[1],approximately 3.5
same,pKa,[1]; listed as glycocholate,3.5
"O=C(O)c1cc(O)ccc1O [gentisic, gentisic acid]",effect of the additive on vecuronium solution stability (in words),[2],most stable solutions
"O=S(=O)(O)c1ccccc1 [benzenesulfonic, benzenesulfonic acid]",effect of the additive on vecuronium solution stability (in words),[2],most stable solutions
"Cc1ccc(S(=O)(=O)O)cc1 [toluenesulfonic, toluenesulfonic acid]",effect of the additive on vecuronium solution stability (in words),[2],most stable solutions
"CCCCCCCCCCCCCC(=O)OCC(COP(=O)(O)OCC(O)CO)OC(=O)CCCCCCCCCCCCC (stereo not drawn) [DMPG, dimyristoylphosphatidylglycerol]",pKa,[1],approx. 3.0
same,pKa,[1]; listed as Dimyristoyl phosphatidylglycerol,about 3.0
CC(=O)N[C@@H](Cc1c[nH]c2ccccc12)C(=O)O [N-acetyltryptophan],pKa,[1],3.4
same,effect of the additive on vecuronium solution stability (in words),[2]; [6],performed very poorly at the higher temperature
"CCCCCCCC(=O)O [octanoic, Octanoic acid]",effect of the additive on vecuronium solution stability (in words),[2]; [6],equally bad
